Experimental findings from paper PMC3673989, “Effect of Single Amino Acid Substitution Observed in Cancer on Pim-1 Kinase Thermodynamic Stability and Structure” (PLoS ONE, 2013) are described below.

The Km is the substrate concentration at which the rate is half of its maximum.

One experiment addresses T1, Pim-1 E124Q (Homo sapiens, UniProt P11309, E124Q).
T1 construct: hexahistidine tag (TEV-cleavable) (cleaved yes); made in house; host or cells: E. coli BL21(DE3)
The experiment can be described thus: Inhibitor binding by temperature shift assay (SYPRO Orange). The settings on record: Pim-1 E124Q 2 µM, compound 10 µM. On the procedure:
(§1) Thermal melting experiments were carried out using an Mx3005p Real Time PCR machine (Stratagene). Proteins were buffered in 10 mM HEPES pH 7.5, 500 mM NaCl and assayed in a 96-well plate at a final concentration of 2 µM in 20 µl volume. Compounds were added at a final concentration of 10 µM. SYPRO Orange (Molecular Probes) was added as a fluorescence probe at a dilution of 1∶1000. […] Data was analysed as previously described.

The next experiment addresses T2, Pim-1 E135K (Homo sapiens, UniProt P11309, E135K).
T2 construct: hexahistidine tag (TEV-cleavable) (cleaved yes); made in house; host or cells: E. coli BL21(DE3)
The experiment is described as above. The settings on record: Pim-1 E135K 2 µM, compound 10 µM. The procedure:
as §1

Another experiment deals with T3, Pim-1 E142D (Homo sapiens, UniProt P11309, E142D).
T3 construct: hexahistidine tag (TEV-cleavable) (cleaved yes); made in house; host or cells: E. coli BL21(DE3)
The experiment is described as above. As to conditions: Pim-1 E142D 2 µM, compound 10 µM. On the procedure:
as §1

Experiment [1] deals with T4, Pim-1 Y53H (Homo sapiens, UniProt P11309, Y53H).
T4 construct: hexahistidine tag (TEV-cleavable) (cleaved yes); made in house; host or cells: E. coli BL21(DE3)
The experiment is described as above. The settings on record: Pim-1 Y53H 2 µM, compound 10 µM. The procedure:
as §1

Experiment [2] concerns the target T5, Pim-1 wild type (Homo sapiens, UniProt P11309).
T5 construct: hexahistidine tag (TEV-cleavable) (cleaved yes); made in house; host or cells: E. coli BL21(DE3)
The experiment is described as above. The settings on record: Pim-1 wild type 2 µM, compound 10 µM. On the procedure:
as §1

Experiment [3] has as its target T4, Pim-1 Y53H. The experiment can be described thus: Caliper mobility shift kinase assay. The class given is biochemical. The settings on record: Y53H relative to Pim-1 wild type. On the procedure:
(§2) Phosphorylation reaction was monitored using a coupled-enzyme assay in which ADP production is coupled to NADH oxidation by pyruvate kinase and lactate dehydrogenase. […] In the Caliper mobility shift assays kinase reactions were analyzed by microfluidic capillary electrophoresis. The final assay buffer was 50 mM HEPES, pH 7.5, 1 mM DTT, 0.02% Tween 20, 0.02% BSA, 10 mM beta-glycerophosphate, 0.01 mM Na3VO4, 0.6% DMSO, 8 mM MgCl2, 2 µM peptide and 0.2 nM kinase. The reactions were started by addition of substrate mix consisting of ATP and peptide substrate to kinase and inhibitor solution. ATP concentrations were adjusted to the Kmvalues of the specific Pim enzyme. After incubation for 60 min at 30°C reactions were terminated with 100 mM HEPES pH 7.5, 5% DMSO, 0.1% coating reagent (Caliper Lifescience) 10 mM EDTA pH 8.0, 0.015% Brij35. Levels of substrate and product were quantified by measuring the laser-induced fluorescence intensities of fluorescein labels of the peptide.

The next experiment concerns the target Pim-1 variants. The experiment in a line: Caliper mobility shift kinase assay. The class given is biochemical, human. As to conditions: exception K00487 and K00207a for Y53H. The procedure: as §2
For experiment [4], the target named is T5, Pim-1 wild type. The class given is biochemical. The settings on record: ATP as substrate, wild type protein. The procedure: as §2

The structures appear in SMILES notation.

T5 sequence (P11309 whole entry): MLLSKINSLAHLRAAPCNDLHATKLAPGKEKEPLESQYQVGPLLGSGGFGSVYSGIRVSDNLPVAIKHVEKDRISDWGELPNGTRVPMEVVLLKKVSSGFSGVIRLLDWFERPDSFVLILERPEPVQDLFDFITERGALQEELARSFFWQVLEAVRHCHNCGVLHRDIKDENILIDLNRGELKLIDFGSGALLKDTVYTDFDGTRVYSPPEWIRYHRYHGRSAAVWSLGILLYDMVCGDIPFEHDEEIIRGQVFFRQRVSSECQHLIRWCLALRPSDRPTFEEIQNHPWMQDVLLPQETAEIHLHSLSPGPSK
T3 sequence (P11309 whole entry E142D): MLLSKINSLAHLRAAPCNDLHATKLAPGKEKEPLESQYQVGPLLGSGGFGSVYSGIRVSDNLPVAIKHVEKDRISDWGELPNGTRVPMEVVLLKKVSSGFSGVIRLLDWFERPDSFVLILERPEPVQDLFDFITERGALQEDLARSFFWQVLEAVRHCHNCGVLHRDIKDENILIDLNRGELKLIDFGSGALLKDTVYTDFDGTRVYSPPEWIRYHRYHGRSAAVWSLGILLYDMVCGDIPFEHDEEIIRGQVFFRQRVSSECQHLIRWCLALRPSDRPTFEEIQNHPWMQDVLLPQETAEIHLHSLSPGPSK
T1 sequence (P11309 whole entry E124Q): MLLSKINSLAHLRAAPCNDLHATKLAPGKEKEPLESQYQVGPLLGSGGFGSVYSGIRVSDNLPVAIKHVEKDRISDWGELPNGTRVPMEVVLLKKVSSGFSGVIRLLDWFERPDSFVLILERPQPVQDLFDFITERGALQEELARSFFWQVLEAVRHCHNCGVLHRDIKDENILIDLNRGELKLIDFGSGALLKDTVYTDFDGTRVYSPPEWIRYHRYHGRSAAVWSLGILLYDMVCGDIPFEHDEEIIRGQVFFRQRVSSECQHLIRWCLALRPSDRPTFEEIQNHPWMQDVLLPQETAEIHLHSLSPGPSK
T2 sequence (P11309 whole entry E135K): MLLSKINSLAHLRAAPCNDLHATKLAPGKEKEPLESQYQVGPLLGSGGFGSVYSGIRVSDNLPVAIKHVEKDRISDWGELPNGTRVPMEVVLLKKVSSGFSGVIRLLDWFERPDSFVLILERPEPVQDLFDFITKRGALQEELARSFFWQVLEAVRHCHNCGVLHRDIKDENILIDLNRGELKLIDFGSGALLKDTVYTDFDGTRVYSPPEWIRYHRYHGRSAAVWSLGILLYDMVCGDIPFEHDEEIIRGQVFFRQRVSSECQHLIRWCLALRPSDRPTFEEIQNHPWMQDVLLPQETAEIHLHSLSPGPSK
T4 sequence (P11309 whole entry Y53H): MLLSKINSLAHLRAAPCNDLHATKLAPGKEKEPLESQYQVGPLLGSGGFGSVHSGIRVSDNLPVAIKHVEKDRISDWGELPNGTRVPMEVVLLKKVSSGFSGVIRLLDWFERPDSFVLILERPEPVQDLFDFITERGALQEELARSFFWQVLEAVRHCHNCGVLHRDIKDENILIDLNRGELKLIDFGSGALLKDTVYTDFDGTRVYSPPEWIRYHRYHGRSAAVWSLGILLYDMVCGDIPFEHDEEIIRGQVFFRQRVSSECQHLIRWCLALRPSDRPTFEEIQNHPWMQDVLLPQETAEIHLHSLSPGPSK

In the case of `CC(=O)c1cccc(-c2cnc3ccc(N[C@H](CO)C(C)C)nn23)c1` [K00518], the ΔTm at Pim-1 E124Q is given as 4.3 K; at Pim-1 E135K, 6.4 K; at Pim-1 E142D, 5.3 K; on Pim-1 Y53H [1] it was 4.6 K; on Pim-1 wild type [2], 5.6 K.
Regarding `CC(C)[C@@H](CO)Nc1ccc2ncc(-c3cccc(C(F)(F)F)c3)n2n1` [K00516], the ΔTm turned out to be 8.2 K on Pim-1 E124Q; 9.0 K on Pim-1 E135K; 7.7 K at Pim-1 E142D; 6.9 K on Pim-1 Y53H [1]; 8.2 K at Pim-1 wild type [2].
With `COCCNc1ccc2ncc(-c3cccc(Cl)c3)n2n1` [K00478], the ΔTm at Pim-1 E124Q is on record as 4.9 K; on Pim-1 E135K, 5.9 K; at Pim-1 E142D it was 4.8 K; on Pim-1 Y53H [1], 4.5 K; at Pim-1 wild type [2], 6.0 K.
For `Clc1ccc(-c2cnc3ccc(NC4CCOCC4)nn23)cc1` [K00499], the ΔTm on Pim-1 E124Q was 5.6 K; at Pim-1 E135K, 6.0 K; on Pim-1 E142D, 6.6 K; at Pim-1 Y53H [1], 5.9 K; at Pim-1 wild type [2], 5.5 K.
On to `CC(C)[C@@H](CO)Nc1ccc2ncc(-c3cccc(Cl)c3)n2n1` [K00514], for which the ΔTm at Pim-1 E124Q amounted to 6.1 K; at Pim-1 E135K, 7.5 K; at Pim-1 E142D it was 6.2 K; at Pim-1 Y53H [1] it was 5.6 K; on Pim-1 wild type [2] it was 6.1 K.
In the case of `CCC(CO)Nc1ccc2ncc(-c3cccc(OC(F)(F)F)c3)n2n1` (centres unmarked) [K00487], the ΔTm on Pim-1 E124Q is 7.6 K; on Pim-1 E135K, 7.5 K; at Pim-1 E142D it was 8.1 K; on Pim-1 Y53H [1], 7.0 K; on Pim-1 wild type [2] it was 7.7 K. Also, the “fold increase of IC50 versus wild type” value on Pim-1 Y53H [3] is reported as 1.8 fold. For the same molecule, the “IC50 for Pim-1 variants compared with wild type” value at Pim-1 variants is listed as “closely similar”.
As to `FC(F)(F)Oc1cccc(-c2cnc3ccc(NCC4CC4)nn23)c1` [K00520], the ΔTm is listed as 5.0 K at Pim-1 E124Q; 6.5 K at Pim-1 E135K; 6.4 K at Pim-1 E142D; 5.5 K on Pim-1 Y53H [1]; 6.8 K at Pim-1 wild type [2].
Regarding `CCN1CCC2(CC1)NC(=O)c1c(c3ccc(Cl)c(Cl)c3n1C)C2C#N` (centres unmarked) [K01786a], the ΔTm worked out at 7.2 K on Pim-1 E124Q; 8.2 K on Pim-1 E135K; 8.6 K on Pim-1 E142D; 8.2 K at Pim-1 Y53H [1]; 8.4 K at Pim-1 wild type [2].
For the molecule `Nc1ncnc2c1ncn2[C@@H]1O[C@H](COP(=O)(O)OP(=O)(O)OP(=O)(O)O)[C@@H](O)[C@H]1O` [ATP], at Pim-1 wild type [4], the Km came out at 205 µM.
Take `CC(C)[C@@H](CO)Nc1ccc2ncc(-c3cccc(OC(F)(F)F)c3)n2n1` [K00512]: the ΔTm is on record as 8.5 K on Pim-1 E124Q; 8.9 K at Pim-1 E135K; 8.8 K on Pim-1 E142D; 8.1 K at Pim-1 Y53H [1]; 8.4 K on Pim-1 wild type [2].
Consider `Cn1c2c(c3ccc(Cl)c(Cl)c31)C(C#N)C1(CCOCC1)NC2=O` (centres unmarked) [K01741a], for which the ΔTm at Pim-1 E124Q was 3.3 K; on Pim-1 E135K, 5.2 K; at Pim-1 E142D, 3.3 K; on Pim-1 Y53H [1] it was 3.3 K; at Pim-1 wild type [2] it was 5.1 K.
